Data on two substances can be found in patent publication US5449662A, “Atrial natriuretic peptide clearance inhibitors which resist degradation” (Scios Nova Inc., priority 1992, dated 1995).

Experiment [1] deals with Female Sprague-Dawley rats. Kind of experiment: In vivo diuresis and natriuresis in anesthetized rats. Conditions: 300 ng/kg/min infusion, mean ± SE, n = 7. On the set-up: species or system rat. The procedure: The ability of analog #1 to effect diuresis and natriuresis in whole animals was determined as follows. Female Sprague-Dawley rats (230-260 g) anesthetized with inactin (100 mg/kg body weight) were catheterized by placing cannulae in femoral artery (B.P. monitoring), femoral vein (infusion of drugs and saline) and bladders (collection of urine). Post surgery, and prior to administration of test substance, saline was infused at 20 ul/min for 45 min in order to stabilize urine flow. Stabilization of urine flow was determined by collection of urine during several 10 min periods. Once stable urine flow was obtained, three 10 min control periods were collected followed by infusion of test compounds at 20 ul/min for 1 hr after priming with 10 times the infusion dose. Following experimental infusion period, saline was infused at 20 ul/min for 2 additional hr during the recovery phase. The urine volume collected during ten minute collection periods was determined gravimetrically. Urinary sodium excretion UNa V was determined photometrically.
Analog #1 infused at 10 ug/kg/min gives a mean 10-fold increase in urinary sodium excretion and a 2- to 3-fold increase in urinary flow rate. Maximal effects are not observed until the second or third experimental collection period and are sustained through the infusion.

For experiment [2], the target named is T1, clearance receptor in isolated perfused rat kidney (Rattus norvegicus, UniProt P41740).
T1 construct: the clearance receptor in isolated perfused rat kidney; from tissue; host or cells: isolated perfused rat kidney
T1 sequence (P41740 41-535): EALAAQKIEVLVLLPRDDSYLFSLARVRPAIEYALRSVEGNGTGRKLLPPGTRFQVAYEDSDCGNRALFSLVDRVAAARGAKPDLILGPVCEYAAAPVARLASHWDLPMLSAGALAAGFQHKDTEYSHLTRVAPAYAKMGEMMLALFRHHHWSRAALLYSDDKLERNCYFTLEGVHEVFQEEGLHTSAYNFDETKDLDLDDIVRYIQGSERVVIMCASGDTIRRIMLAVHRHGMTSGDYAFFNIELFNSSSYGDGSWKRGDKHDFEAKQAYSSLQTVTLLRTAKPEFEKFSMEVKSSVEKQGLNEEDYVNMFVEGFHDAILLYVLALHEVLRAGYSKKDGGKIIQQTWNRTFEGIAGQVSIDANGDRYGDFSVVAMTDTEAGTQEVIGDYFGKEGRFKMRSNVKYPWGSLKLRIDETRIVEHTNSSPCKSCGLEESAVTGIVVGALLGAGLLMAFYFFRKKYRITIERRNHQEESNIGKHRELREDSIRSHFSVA
Kind of experiment: Rat kidney receptor binding assay (isolated perfused rat kidney). The following applies: labeled compound 4 × 10^-12 M + competitor 1 × 10^-6 M; n = 2. The text has this:
The assay systems used are adapted from those of Schenk, D. B., et al, Biochem Biophys Res Commun (1985) 127:433-442 and Scarborough, R. M., J Biol Chem (1986) 261:12960-12964. These assays measure clearance receptor binding affinity through competition with ANP using the receptors on bovine aortic smooth muscle (BASM) or bovine aortic endothelial (BAE) cells. Also employed is the receptor binding affinity assay for the clearance receptor in isolated perfused rat kidney as described by Maack, T., et al, Science (1987) 238:675-679.
In the rat kidney receptor binding assay, the native 28-residue labeled ANP was used: I^125 labeled rANP(99-126), with the label linked to tyrosine at 126. The results of this assay are shown in Table 2 as the ratio of bound-to-free labeled rANP(99-126) in the presence and absence of competing compound.

Regarding “hANP(102-126): human atrial natriuretic peptide 102-126, comparison in rat diuresis/natriuresis (WDSSDRSALLKSKLRALLTAPRSLR; Atrial natriuretic factor; UniProt P01160 102-126, looked up, fragment)”, in experiment [1], the “UNa V (urinary sodium excretion), difference between experimental and control periods” value stood at 2.24 ± 0.77 uEq/min; the “V (urine flow), difference between experimental and control periods” value turned out to be 16.8 ± 9.3 µL/min. As for “rANP(99-126): native 28-residue rat ANP, unlabeled competitor in the rat kidney binding assay [reference compound]”, the “Ratio of Bound/Free (125I)rANP(99-126), Whole Kidney” value in experiment [2] was 0.56.
